Measurements: publication PMC12227259, “PubChem BioAssays 1063: A Poorly Exploited Source of New Antileishmanial Compounds” (Journal of Parasitology Research, 2025)
Where two headings read alike, the source gives them in different places.

What was measured:
[1] = tested on: L. mexicana intracellular amastigotes; assay: Intracellular amastigote transformation and proliferation assay; type: cell-based, Leishmania (Leishmania) mexicana; details: for IC50: Leishmania mexicana, Peritoneal macrophage, read-out: L. mexicana amastigotes (IC50 ± SD)
Description: (§1) Leishmania (Leishmania) amazonensis MHOM/BR/77/LTB0016 reference strain was kindly donated by the Department of Immunology of Fundação Oswaldo Cruz (Fiocruz), Brazil. Leishmania (Leishmania) mexicana MNYC/BZ/62/M379 and L. major MHOM/IL/81/Friedlin reference strains were kindly donated by Paul A. Bates, Division of Biomedical and Life Sciences, Faculty of Health and Medicine, Lancaster University, United Kingdom. Leishmania (Leishmania) infantum MHOM/FR/78/LEM75 was kindly donated by the Department of Parasitology, Faculty of Pharmacy, Universidad Complutense de Madrid, Spain. The promastigotes were cultivated at 26°C in Medium 199 (Gibco, Grand Island, NY, United States) supplemented with 10% heat-inactivated (56°C, 30 min) fetal bovine serum (Gibco, Grand Island, NY, United States) and antibiotics (200 IU penicillin and 200 μg/mL streptomycin). Exponential multiplication of the promastigotes of the four species was attained by passages every 3–4 days. L. mexicana axenic amastigotes were cultured in Schneider's Insect Medium (Sigma-Aldrich, St. Louis, MO, United States) at pH 5.4, supplemented with 20% heat-inactivated fetal bovine serum and antibiotics (as above).
The activity of the test compounds against L. mexicana intracellular amastigotes was carried out by the transformation and proliferation assay as reported elsewhere. Briefly, mouse peritoneal macrophages were obtained by peritoneal lavage of BALB/c mice and cultivated in RPMI 1640 medium supplemented with fetal bovine serum and antibiotics as described above. The cells were seeded in 96-well culture plates at 10^5 cells/well (100 μL) and incubated at 37°C and 5% CO2 for 2 h. Then, macrophages were infected with L. mexicana axenic amastigotes at a rate of three parasites per host cell. After overnight incubation at 37°C and 5% CO2, noninternalized amastigotes and nonadhered macrophages were removed by the elimination of the culture medium and washing with phosphate buffer solution (PBS). Fresh RPMI 1640 medium containing serial dilutions of the test compounds was then added. Amphotericin B was tested in parallel at concentrations from 1.35 to 0.021 μM. Four replicates of each drug concentration were tested in every assay. Plates were incubated for 48 h at 37°C and 5% CO2.

[2] = tested on: L. infantum promastigotes; assay: Growth inhibition assay of promastigotes (pNPP); type: cell-based, Leishmania (Leishmania) infantum MHOM/FR/78/LEM75; details: Leishmania infantum, read-out: Promastigotes (IC50 ± SD) L. infantum
Description: as §1
(§2) The growth inhibition assay of promastigotes was conducted according to Bodley et al.'s procedure, with minor modifications. Briefly, 96-well culture plates were seeded with 100 μL culture medium 199 containing 5 × 10^5 log-phase promastigotes and 100 μL of twofold serial dilutions of the test compounds in culture medium. The plates were sealed with parafilm and incubated for 48 h at 26°C. Negative control wells contained promastigotes and DMSO at 0.5%, and positive wells contained promastigotes and 2.7 μM amphotericin B deoxycholate (Gibco, Grand Island, NY, United States). A series of amphotericin B concentrations was also tested in parallel to estimate its IC50 against promastigotes of the three Leishmania strains. After the incubation period, 30 μL of 3 mg/mL p-nitro-phenyl-phosphate (pNPP) (Sigma-Aldrich) in sodium acetate (pH 5.5, Sigma-Aldrich) and 1% Triton X-100 (Sigma-Aldrich) were added to each well. Plates were incubated for other 3 h at 37°C, and 50 μL 0.25 M NaOH (Sigma-Aldrich) was added to change all the produced p-nitro-phenol to its yellow-colored form. Absorbance was then read in a Biotek Epoch microplate reader (Agilent, Santa Clara, CA, United States) at 405 nm. Half-maximal inhibitory concentrations (IC50) were estimated by nonlinear fitting of absorbance versus compound concentration to the sigmoid Emax equation [18]. Each drug concentration was tested in quadruplicate, and the assay was repeated three times.

[3] = Cytotoxicity, alamar blue; type: cell-based, BALB/c mice; details: BALB/c, read-out: Cytotoxicity (CC50 ± SD)
Description: The cytotoxicity of the test compounds was assessed in primary cultures of mouse peritoneal macrophages as reported elsewhere, with minor modifications. Briefly, BALB/c mice were sacrificed by CO2 inhalation, and their peritoneal macrophages were collected by washing the abdominal cavity with cold RPMI 1640 (Gibco, Paisley, Scotland, United Kingdom) culture medium supplemented with antibiotics (sodium penicillin 200 IU and streptomycin 200 μg/mL) and 10% fetal bovine serum. The macrophages were distributed in 96-well culture plates at 10^5 cells/well. After 4 h incubation at 37°C and 5% CO2, the culture medium was replaced by fresh medium containing the test compounds, and the plates were incubated for another 48 h. Afterwards, 20 μL alamar blue (Thermo Fisher Scientific, Oregon, United States) was added per well. Incubation was continued for another 6–8 h at 37°C and 5% CO2 to measure the fluorescence of the reduced dye in a plate reader (excitation: 485 nm, emission: 590, scaling factor: 10/10, Fluoroskan Ascent FL 2.5 plate reader—Thermo Labsystems, Waltham, MA, United States). Fifty percent cytotoxic concentrations (CC50) were estimated by nonlinear fitting to the Emax sigmoid model. Each concentration was tested in triplicate, and each compound was tested in three independent studies.

[4] = tested on: L. amazonensis promastigotes; assay: Growth inhibition assay of promastigotes (pNPP); type: cell-based, Leishmania (Leishmania) amazonensis MHOM/BR/77/LTB0016; details: Leishmania amazonensis, read-out: Promastigotes (IC50 ± SD) L. amazonensis
Description: as §1, §2

[5] = tested on: L. mexicana promastigotes; assay: Growth inhibition assay of promastigotes (pNPP); type: cell-based, Leishmania (Leishmania) mexicana MNYC/BZ/62/M379; details: Leishmania mexicana, read-out: Promastigotes (IC50 ± SD) L. mexicana
Description: as §1, §2

[6] = tested on: L. major promastigotes; assay: Growth inhibition assay of promastigotes (pNPP); type: cell-based, L. major MHOM/IL/81/Friedlin; details: Leishmania major, read-out: Promastigotes (IC50 ± SD) L. major
Description: as §1, §2

[7] = tested on: L. mexicana; assay: Mouse model of cutaneous leishmaniasis, intralesional treatment; type: in vivo, BALB/c mice; details: for lesion size versus amphotericin B–treated mice: at 21 days
Description: Female, 18–20 g, 8–10 weeks old BALB/c mice were supplied by the laboratory animal breeding facility of the Faculty of Medicine, National Autonomous University of México. They were maintained under controlled environmental conditions (room temperature 22°C–25°C, relative humidity 60%–65%, light cycle 12 h light–12 h dark) and were handled by qualified personnel. At the end of studies, mice were sacrificed by CO2 inhalation. The experimental protocol was approved by the Ethics in Research Committee and the Internal Committee on the Care and Use of Lab Animals (Code CICUAL 004-CIC-2019). All the experiments were conducted in accordance with the Mexican Regulation and the Institute of Laboratory Animal Research Guide for the care and use of laboratory animals.
Mice were infected by intradermal injection in the footpads with 10^7 stationary-phase L. mexicana promastigotes. Two weeks later, mice were randomly allocated in seven groups of 6–7 mice each. Four groups were treated intralesionally every 3 days (five doses) with 20 μL of any of the test compounds at 10 mg/mL in DMSO. […] The dorso-plantar thickness of the rear limbs was weekly measured from the beginning of treatment (14 days postinfection) to 2 weeks after the end of treatment. Feet were measured with a Vernier caliper, and lesion sizes were calculated by subtracting the value of the noninfected limb (left) to that of the infected one (right).
Two weeks after the end of treatment, mice were weighed, sacrificed by CO2 inhalation, and necropsied. The weights of the heart, liver, spleen, and left and right kidneys were determined. Both rear limbs were excised at the level of the tibiotarsal joint and weighed to calculate, by difference, the weight of the lesions. The number of parasites in the lesions was estimated by using the limiting dilution assay technique.

[8] = parameters: method as in PMID 6576723; details: subcutaneous route; cited from earlier work
[9] = tested on: Trypanosoma cruzi; parameters: method as in PMID 27501246; details: in vitro and in vivo; cited from earlier work
[10] = tested on: Trypanosoma brucei; parameters: method as in PMID 27501246; details: in vitro and in vivo; cited from earlier work
[11] = tested on: L. donovani axenic amastigotes; parameters: method as in PMID 27501246; details: cited from earlier work
[12] = tested on: Leishmania; details: cited from earlier work
[13] = intracellular amastigotes in mouse peritoneal macrophages, 48 h, then 72 h transformation at 26°C
[14] = primary mouse peritoneal macrophages
[15] = second mention, p = 0.0057 (Compound 5), p = 0.0030 (Compound 6)

SMILES | IC50 [1, 13] [µM] | IC50 ([2]; 48 h at 26°C, pNPP readout) [µM] | CC50 at 48 h [3, 14] [µM] | IC50 ([4]; 48 h at 26°C, pNPP readout) [µM] | IC50 ([5]; 48 h at 26°C, pNPP readout) [µM] | IC50 ([6]; 48 h at 26°C, pNPP readout) [µM] | other results
C[C@@H]1[C@H](O)[C@@H](C)/C=C/C=C/C=C/C=C/C=C/C=C/C=C/[C@H](O[C@@H]2O[C@H](C)[C@@H](O)[C@H](N)[C@@H]2O)C[C@@H]2O[C@](O)(C[C@@H](O)C[C@@H](O)[C@H](O)CC[C@@H](O)C[C@@H](O)CC(=O)O[C@H]1C)C[C@H](O)[C@H]2C(=O)O [AmB, amphotericin B deoxycholate, reference compound] | 0.48 ± 0.02 | 0.031 ± 0.002 | 21 ± 2.1 | 0.031 ± 0.007 | 0.042 ± 0.019 | 0.031 ± 0.008 | Selectivity index [1]: 44
OC(COc1cccc2ccccc12)CN1CCCC1 (centres unmarked) [Compound 1] | 26.3 ± 8.2 | 23.4 ± 9.2 | 125 ± 11 | > 50 | > 50 | 42.5 ± 7.2 | Selectivity index ([1]; CC50/IC50 (in amastigotes)): 5
CCN1CCN(C(=S)c2ccc(OC)cc2)CC1 [Compound 2] | > 50 | > 50 | 127 ± 2.1 | > 50 | > 50 | > 50 | –
COc1ccc2c(c1)sc(=N)n2C [Compound 3] | > 50 | > 50 | > 257 | 30.6 ± 11 | > 50 | > 50 | –
Nc1cnn(Cc2ccccc2F)c1 [Compound 4] | 8.9 ± 1.5 | 23.1 ± 7.6 | 172 ± 6.9 | 23.7 ± 9.9 | 11.1 ± 8.2 | 11.3 ± 2.2 | Selectivity index ([1]; CC50/IC50 (in amastigotes)): 19; number of parasites in lesions versus controls, distribution-free multiple comparison test ([7]; limiting dilution, 2 weeks after the end of treatment, p = 0.0170): statistically significant differences
CC(C)OCCCn1c(=N)c(C(N)=S)cc2c(=O)n3ccccc3nc21 [Compound 5] | 1.1 ± 0.3 | 13.8 ± 4.1 | 172 ± 7.9 | 28.6 ± 14.3 | 27.2 ± 6.2 | 9.9 ± 1.9 | average lesion weight versus amphotericin B treated mice ([7]; 2 weeks after the end of treatment, p = 0.023): statistically lower; lesion size versus amphotericin B–treated mice ([7]; first mention, p = 0.0491): statistically smaller; lesion size versus amphotericin B–treated mice [7, 15]: statistically smaller
CN1CCN(Cc2ccccc2Sc2ccccc2)CC1 [Compound 6] | 5.9 ± 2.8 | 2.7 ± 1 | – | 3 ± 0.42 | 2.3 ± 0.54 | 4.6 ± 2.3 | Selectivity index ([1]; CC50/IC50 (in amastigotes)): 10; CC50 ([3]; mouse peritoneal macrophages, 48 h): 60.9 ± 10.7 µM; lesion size versus amphotericin B–treated mice [7, 15]: statistically smaller
O=C(Cn1cc([N+](=O)[O-])nc1[N+](=O)[O-])N1CCN(c2ccccc2)CC1 [Compound 7] | – | – | – | – | – | – | IC50 ([1]; in Mus musculus): 0.23 ± 0.04 µM; IC50 ([2]; 48 h): 5.9 ± 1 µM; CC50 at 48 h ([3]; mouse peritoneal macrophages): 25.2 ± 1.9 µM; IC50 ([4]; 48 h): 1.2 ± 0.44 µM; IC50 ([5]; 48 h): 0.76 ± 0.16 µM; IC50 ([6]; 48 h): 2.9 ± 0.56 µM
C[S+](C)[O-] [DMSO, dimethyl sulfoxide] | – | – | – | – | – | – | 50% lethal single dose toxicity [8]: 13900 to 20500 mg/kg
Cc1nc(C)c(C(=O)Nc2ccc(F)c(-c3nc4ncc(-c5ccccn5)cn4n3)c2)o1 [GNF 6702] | – | – | – | – | – | – | activity against Trypanosoma cruzi [9]: active; activity against Trypanosoma brucei [10]: active; increase in potency on optimization of hit GNF5343 [11]: 400 fold
CCN(CC)C(=S)SSC(=S)N(CC)CC [disulfiram] | – | – | – | – | – | – | in vivo activity in an experimental model of cutaneous leishmaniasis [12]: in vivo activity
